Experimental data: patent US20040039014A1, “Methods and compounds for treating depression and other disorders” (NPS Pharmaceuticals, Inc., priority 1998, published 2004)
Where a name gives a salt, the structure may show the parent alone. Marks after values point to notes of the source that are not given here.

What was measured:
male Sprague-Dawley rats = assay: Rat forced-swim test (FST); format: in vivo; settings: Table VI, 60 minutes prior to testing, saline control 47.9
Method: (§1) For the mouse and rat forced-swim tests, male pathogen-free NIH-Swiss mice (Harlan Sprague-Dawley) weighing between 22-25 g, and male pathogen-free Sprague-Dawley rats (Harlan Sprague-Dawley) weighing between 320-350 g were used. Animals were removed from the housing room to the testing area in their own cages and allowed to adapt to the new environment for at least 1 hour before testing. Mice were administered either drug (imipramine, 10 mg/kg i.p.; or Compound 60, various p.o or i.p. doses) or saline. Thirty minutes to 24 hours later, mice were placed individually in cylinders (diameter: 10 cm; height: 25 cm) filled with 6 cm of water (22-25° C.) for 6 minutes. The duration of immobility during the last 4 minutes of the 6 minute test was scored. A mouse was recorded as immobile when floating motionless or making only those movements necessary to keep its head above water. Results were expressed as the duration of immobility (seconds).
The rat forced-swim test was conducted over two days. On treatment Day 1, rats were placed individually in cylinders (diameter: 18 cm; height: 40 cm) filled with water (22-25° C.) to a depth of 15 cm for 15 minutes. The duration of immobility during the first 5 minutes was scored. After testing, the rats were dried with paper towels and placed in holding cages. Five minutes after removal from the testing cylinders, animals received either drug (imipramine, 10 mg/kg i.p.; or Compound 60, various p.o. doses) or saline (p.o.). Ten minutes later, the rats were returned to their home cages. […] The duration of immobility during the first 5 minute period was recorded. A rat was recorded as immobile when floating motionless or making only those movements necessary to keep its head above water. […]

NMDA receptor = target: T1, NMDA receptor; assay: [3H]MK-801 binding assay (rat cortex synaptic plasma membranes); settings: read-out: [3H]MK-801 data IC50, Table I
T1 construct: rat cortex membranes
Method: Synaptic plasma membranes (SPMs) from rat cortex were prepared as follows. Isolated cerebral cortices from male and female rats were purchased from Pel-Freez (Rogers, Ariz.) in bulk, and stored at −80° C. The cortices from 25 rats were thawed and pooled. […] The resulting homogenates were centrifuged for 10 min at 1,000×g in a T865 rotor, UltraPro80 Sorvall Centrifuge. The supernatant was removed and subsequently centrifuged at 30,000×g for 30 min. […] Membranes were washed by re-suspension in 500 ml of 5 mM K-EDTA (pH 7.0), incubated at 32° C. for 30 min with stirring, and centrifuged at 100,000×g for 30 min. The final pellet was resuspended in 60 ml of […] K-EDTA (pH 7.0) and stored in aliquots at −80° C. The extensive washing procedure utilized in this assay was designed to minimize the concentrations of glutamate and glycine (co-agonists at the NMDA receptor-ionophore complex) present in the membrane preparation.
On the day of assay, aliquots of SPM were thawed and resuspended in 75 vols of 5 mM K-EDTA, pH 7.0. SPM were centrifuged at 100,000×g for 30 min at 4° C.
The SPM pellet was resuspended in assay buffer (30 mM EPPS, 1 mM K-EDTA, pH 7.0) by polytron. […] Binding was started by the addition of the tissue homogenate. The assay was terminated by the addition of 4 ml ice-cold buffer, followed by filtration over glass-fiber filters (Schleicher & Schuell No. 30) on a Millipore 12-well filtration manifold. Filters were washed with another 3 ×4 ml ice-cold buffer (pH 7.0). Radioactivity on the filters was measured using Fisherbrand Scinti-Safe scintillation cocktail. Samples were shaken for 45-60 min on a shaker platform to solubilize the radioactivity. Counting for ^3H was performed in a Beckman 6000IC LS Scintillation Counter for 4 min per sample.

male C57BL/6 mice = assay: Mouse tail-suspension test (TST) with Compound 60; format: in vivo; settings: for Mean duration of immobility: Table VII, 5 mg/kg p.o. single dose, saline control 154.9
Method: For the mouse tail-suspension test with Compound 60, male pathogen-free C57BL/6 mice (Harlan Sprague-Dawley) weighing between 22-25 g were used. Animals were removed from the housing room to the testing area in their own cages and allowed to adapt to the new environment for at least 1 hour before testing. Mice were administered either drug (imipramine, 15 mg/kg i.p.; or Compound 60, various p.o. doses) or saline. Thirty minutes to 24 hours later, the mice were suspended on the edge of a shelf 80 cm above the floor in the testing room by adhesive tape placed approximately 1 cm from the tip of the tail. The duration of immobility was recorded during a test period of 5 minutes. Mice were considered immobile only when they hung passively and completely motionless. Results were expressed as the duration of immobility (sec).

male NIH-Swiss mice = assay: Mouse forced-swim test (FST); format: in vivo
Method: as §1

[1] = target: T2, norepinephrine transporter site (Rattus norvegicus, UniProt Q63380); assay: Norepinephrine reuptake inhibition assay ([3H]nisoxetine binding, rat forebrain membranes); settings: Table I; read-out: NE Uptake Ki
T2 construct: tissue NovaScreen (performed the assay); host or cells: rat forebrain membranes
T2 sequence (Q63380 1-617): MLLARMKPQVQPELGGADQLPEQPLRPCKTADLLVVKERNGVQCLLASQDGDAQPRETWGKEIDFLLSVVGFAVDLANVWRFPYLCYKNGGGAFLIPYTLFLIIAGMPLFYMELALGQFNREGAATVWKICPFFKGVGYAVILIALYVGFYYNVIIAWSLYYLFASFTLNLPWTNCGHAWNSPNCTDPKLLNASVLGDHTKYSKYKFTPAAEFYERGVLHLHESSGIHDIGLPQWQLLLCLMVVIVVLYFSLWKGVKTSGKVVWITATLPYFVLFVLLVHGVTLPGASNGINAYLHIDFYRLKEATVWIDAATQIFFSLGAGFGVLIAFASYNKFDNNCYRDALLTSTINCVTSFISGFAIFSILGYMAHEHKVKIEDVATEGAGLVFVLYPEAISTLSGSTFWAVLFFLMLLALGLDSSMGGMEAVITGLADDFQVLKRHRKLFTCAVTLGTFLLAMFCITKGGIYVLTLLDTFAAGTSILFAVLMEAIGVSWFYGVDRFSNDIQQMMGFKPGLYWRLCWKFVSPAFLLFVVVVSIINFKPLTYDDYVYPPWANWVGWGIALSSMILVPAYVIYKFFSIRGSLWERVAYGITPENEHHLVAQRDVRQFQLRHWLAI
Method: (§2) Monoamine Transporter Minding Assays
(§3) Monoamine transporter binding assays (reuptake inhibition assays) were performed by NovaScreen using standard radioligand binding assays. The transporter binding assays are described briefly below:
Norepinephrine Reuptake Inhibition Assay
Reactions were terminated by rapid vacuum filtration onto glass fiber filters.

[2] = target: T3, dopamine transporter site (Cavia porcellus, UniProt H0WCX4); assay: Dopamine reuptake inhibition assay ([3H]WIN 35428 binding, guinea pig striatal membranes); settings: Table I; read-out: DA Uptake Ki
T3 construct: tissue NovaScreen (performed the assay); host or cells: guinea pig striatal membranes
T3 sequence (H0WCX4 1-619): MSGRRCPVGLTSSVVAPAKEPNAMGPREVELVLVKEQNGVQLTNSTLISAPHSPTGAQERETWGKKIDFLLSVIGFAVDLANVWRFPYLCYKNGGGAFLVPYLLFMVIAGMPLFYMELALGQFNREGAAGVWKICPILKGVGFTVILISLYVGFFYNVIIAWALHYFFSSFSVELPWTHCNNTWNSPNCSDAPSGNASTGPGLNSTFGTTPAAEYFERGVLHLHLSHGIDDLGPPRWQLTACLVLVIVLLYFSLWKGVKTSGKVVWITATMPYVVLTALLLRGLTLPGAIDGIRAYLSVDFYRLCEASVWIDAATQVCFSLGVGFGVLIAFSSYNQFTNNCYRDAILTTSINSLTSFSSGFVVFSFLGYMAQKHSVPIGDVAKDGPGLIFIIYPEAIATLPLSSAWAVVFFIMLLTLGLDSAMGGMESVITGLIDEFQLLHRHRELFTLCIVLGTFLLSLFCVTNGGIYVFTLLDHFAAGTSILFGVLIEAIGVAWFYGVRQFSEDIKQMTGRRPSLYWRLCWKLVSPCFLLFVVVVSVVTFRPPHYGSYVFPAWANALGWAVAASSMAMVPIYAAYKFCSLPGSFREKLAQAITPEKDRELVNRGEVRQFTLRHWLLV
Method: as §2, §3
Dopamine Reuptake Inhibition Assay:
Reactions were terminated by rapid vacuum filtration onto glass fiber filters. Bound radioactivity was determined using liquid scintillation spectrometry and experimental values were compared to control values to determine binding to the dopamine transporter site based on Madras, et al., Molec.

CNCCC(c1cccc(F)c1)c1cccc(F)c1 [Compound 60, N-Methyl-3.,3-bis(3-fluorophenyl)propylamine hydrochloride]
Mean Change in the Duration of Immobility (Day 2 minus Day 1) (male Sprague-Dawley rats; 1.25 mg/kg oral): 29.7 s
Mean Change in the Duration of Immobility (Day 2 minus Day 1) (male Sprague-Dawley rats; 2.5 mg/kg oral): −24.8* sec
Mean Change in the Duration of Immobility (Day 2 minus Day 1) (male Sprague-Dawley rats; 5 mg/kg oral): −28.8* sec
IC50 (NMDA receptor): 641 nM
Duration of Immobility (male C57BL/6 mice; Table IX (experiment #2), 0.625 mg/kg single oral dose 60 minutes prior to testing, saline control 149.1): 143.3 s
Duration of Immobility (male C57BL/6 mice; Table IX (experiment #2), 1.25 mg/kg single oral dose 60 minutes prior to testing, saline control 149.1): 125.8 s
Duration of Immobility (male C57BL/6 mice; Table IX (experiment #2), 2.5 mg/kg single oral dose 60 minutes prior to testing, saline control 149.1): 69.6* sec
Duration of Immobility (male C57BL/6 mice; Table IX (experiment #2), 5 mg/kg single oral dose 60 minutes prior to testing, saline control 149.1): 69.5* sec
Duration of Immobility (male C57BL/6 mice; Table IX (experiment #2), 10 mg/kg single oral dose 60 minutes prior to testing, saline control 149.1): 15.6* sec
Mean duration of immobility (male C57BL/6 mice; time post-dose 0.5): 84.9* sec
Mean duration of immobility (male C57BL/6 mice; time post-dose 1): 74.7* sec
Mean duration of immobility (male C57BL/6 mice; time post-dose 2): 93.0* sec
Mean duration of immobility (male C57BL/6 mice; time post-dose 4): 109.7 s
Mean duration of immobility (male C57BL/6 mice; time post-dose 6): 125.5 s
Mean duration of immobility (male C57BL/6 mice; time post-dose 24): 177.7 s
Duration of Immobility (male C57BL/6 mice; Table VIII (experiment #1), 2.5 mg/kg single oral dose 60 minutes prior to testing, saline control 210.1): 130.7* sec
Duration of Immobility (male C57BL/6 mice; Table VIII (experiment #1), 5 mg/kg single oral dose 60 minutes prior to testing, saline control 210.1): 123.5* sec
Duration of Immobility (male C57BL/6 mice; Table VIII (experiment #1), 10 mg/kg single oral dose 60 minutes prior to testing, saline control 210.1): 47.8* sec
time of peak effect (reduction in the duration of immobility) post-dosing (male C57BL/6 mice; mouse TST, single 5-mg/kg oral dose): 60 min
Mean duration of immobility (male NIH-Swiss mice; Table III, 5 mg/kg p.o. single dose, time post-dose 0.5, saline control 128.2): 96.1 s
Mean duration of immobility (male NIH-Swiss mice; Table III, 5 mg/kg p.o. single dose, time post-dose 1, saline control 128.2): 38.8* sec
Mean duration of immobility (male NIH-Swiss mice; Table III, 5 mg/kg p.o. single dose, time post-dose 2, saline control 128.2): 66.2* sec
Mean duration of immobility (male NIH-Swiss mice; Table III, 5 mg/kg p.o. single dose, time post-dose 4, saline control 128.2): 66.9* sec
Mean duration of immobility (male NIH-Swiss mice; Table III, 5 mg/kg p.o. single dose, time post-dose 6, saline control 128.2): 76.8* sec
Mean duration of immobility (male NIH-Swiss mice; Table III, 5 mg/kg p.o. single dose, time post-dose 24, saline control 128.2): 124.8 s
Mean duration of immobility (male NIH-Swiss mice; Table IV, 0.625 mg/kg single oral dose 60 minutes prior to testing, saline control 129.7): 153.3 s
Mean duration of immobility (male NIH-Swiss mice; Table IV, 1.25 mg/kg single oral dose 60 minutes prior to testing, saline control 129.7): 72.3* sec
Mean duration of immobility (male NIH-Swiss mice; Table IV, 2.5 mg/kg single oral dose 60 minutes prior to testing, saline control 129.7): 64.5* sec
Mean duration of immobility (male NIH-Swiss mice; Table IV, 5 mg/kg single oral dose 60 minutes prior to testing, saline control 129.7): 56.6* sec
Mean duration of immobility (male NIH-Swiss mice; Table IV, 10 mg/kg single oral dose 60 minutes prior to testing, saline control 129.7): 68.7* sec
Mean duration of immobility (male NIH-Swiss mice; Table V, 0.625 mg/kg single i.p. dose 30 minutes prior to testing, saline control 137.8): 139.5 s
Mean duration of immobility (male NIH-Swiss mice; Table V, 1.25 mg/kg single i.p. dose 30 minutes prior to testing, saline control 137.8): 85.6* sec
Mean duration of immobility (male NIH-Swiss mice; Table V, 2.5 mg/kg single i.p. dose 30 minutes prior to testing, saline control 137.8): 68.5* sec
Mean duration of immobility (male NIH-Swiss mice; Table V, 5 mg/kg single i.p. dose 30 minutes prior to testing, saline control 137.8): 89.6* sec
Mean duration of immobility (male NIH-Swiss mice; Table V, 10 mg/kg single i.p. dose 30 minutes prior to testing, saline control 137.8): 106.1 s
time of peak effect (reduction in the duration of immobility) post-dosing (male NIH-Swiss mice; mouse FST, single dose 5 mg/kg p.o.): 60 min
Ki [1]: > 10000 nM
Ki [2]: 914 nM
